Source: BindingDB's records for doi:10.1021/jm00120a002 (Merck Sharp & Dohme Research Laboratories, 1989)

Test: Half-maximal inhibition of [125I]CCK-33 binding to cholecystokinin receptor

Compound `O=C1Nc2ccc(Cl)cc2C(c2ccccc2)=N[C@@H]1Cc1c[nH]c2ccccc12` has an IC50 of 3.4 µM.

Test: Half-maximal inhibition of [125I]gastrin binding to guinea pig gastric glands

First: O=C(NC1N=C(c2ccccc2F)c2ccccc2NC1=O)c1ccc(C(F)(F)F)cc1 (stereo unspecified)
Second: O=C(NC1N=C(c2ccccc2F)c2ccccc2NC1=O)c1cc2cc(F)ccc2[nH]1 (stereo unspecified) [5-Fluoro-1H-indole-2-carboxylic acid [5-(2-fluoro-phenyl)-2-oxo-2,3-dihydro-1H-benzo[e][1,4]diazepin-3-yl]-amide: 0.23CHCL3]
The IC50 of the first is lower: 9.5 µM for the first, > 10 µM for the second.

Going from `CN1C(=O)C(N(C)C(=O)c2ccccc2Cl)N=C(c2ccccc2)c2ccccc21` (stereo unspecified) to `CN1C(=O)[C@H](NC(=O)c2ccc(C(F)(F)F)cc2)N=C(c2ccccc2)c2ccccc21`, the IC50 falls from > 100 µM to 4.2 µM.

First: O=C(NC1N=C(c2ccccc2)c2ccccc2NC1=O)c1cc(Cl)cc(Cl)c1 (stereo unspecified)
Second: O=C(NC1N=C(c2ccccc2)c2ccccc2NC1=O)c1ccc(Cl)c(Cl)c1 (stereo unspecified)
The IC50 of the first is 7.2-fold higher: 180 µM for the first, 25 µM for the second. The second is the more potent here.

`CN1C(=O)[C@@H](NC(=O)c2ccccc2I)N=C(c2ccccc2F)c2ccccc21` and `CC1(C(=O)NC2N=C(c3ccccc3F)c3ccccc3NC2=O)C=Cc2ccccc21` (stereo unspecified) cannot be ordered by IC50: 11 µM for the first, > 10 µM for the second.

Going from `CCCCCc1ccc(C(=O)NC2N=C(c3ccccc3)c3ccccc3NC2=O)cc1` (stereo unspecified) to `O=C(NC1N=C(c2ccccc2F)c2ccccc2NC1=O)c1cc2cc(O)ccc2[nH]1` (stereo unspecified) [5-Hydroxy-1H-indole-2-carboxylic acid [5-(2-fluoro-phenyl)-2-oxo-2,3-dihydro-1H-benzo[e][1,4]diazepin-3-yl]-amide], the IC50 falls from > 100 µM to 29 µM. The second is the more potent here.
